The structures appear in SMILES notation.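 In this assay, cells in 96-well plates receive the compound at five concentrations for 48 hours. Endpoints are linearly interpolated between the surrounding concentrations. GI50 is the concentration that inhibits growth by half. TGI is the concentration that stops growth completely.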

Some test systems named below: DU-145 prostate; HCC-2998 colon; K-562 leukemia; OVCAR-4 ovarian; OVCAR-5 ovarian; SF-268 CNS; SK-MEL-5 melanoma; SNB-19 CNS.
Common to all, as to assay: NCI anticancer screen, dose series, 48 h

With `O=S(=O)(c1ccc(Cl)cc1)C(Cl)(Cl)Cl`, the GI50 in the experiment with DU-145 prostate is 2.09 µM; with HCC-2998 colon, 1.42 µM; in the experiment on K-562 leukemia, 1.6 µM; in the experiment with OVCAR-4 ovarian it was 2.23 µM; in the experiment with OVCAR-5 ovarian it was 12.7 µM; with SF-268 CNS, 1.56 µM. The GI50 is 3.02 µM in the experiment on SK-MEL-5 melanoma and 15.2 µM in the experiment on SNB-19 CNS. Moreover, the TGI was 10 µM with DU-145 prostate; 5.87 µM in the experiment on HCC-2998 colon; above 100 µM in the experiment on K-562 leukemia; above 63.3 µM in the experiment on OVCAR-4 ovarian; 69.6 µM in the experiment with OVCAR-5 ovarian; 20.6 µM in the experiment with SF-268 CNS. Further, the TGI is 12.1 µM in the experiment with SK-MEL-5 melanoma and above 78.1 µM in the experiment on SNB-19 CNS.
In the case of `CO/N=C(\COc1ccc2c(c1)[nH]c1ccccc12)c1ccc(F)cc1`, the GI50 in the experiment with DU-145 prostate was above 100 µM; in the experiment on HCC-2998 colon, above 100 µM; with OVCAR-4 ovarian, 26.1 µM; in the experiment on OVCAR-5 ovarian, above 100 µM; with SF-268 CNS, above 100 µM; in the experiment on SK-MEL-5 melanoma, above 100 µM. The GI50 with SNB-19 CNS is 30 µM. For the same compound, the TGI in the experiment with DU-145 prostate, with HCC-2998 colon, in the experiment with OVCAR-4 ovarian, with OVCAR-5 ovarian, with SF-268 CNS and in the experiment on SK-MEL-5 melanoma was above 100 µM each time. Further, the TGI in the experiment with SNB-19 CNS is above 100 µM.
On to `COc1cc2c3c(n(C)c(=O)c2cc1OC)-c1cc2c(cc1/C3=C\CCCCN1C(=O)c3ccccc3C1=O)OCO2`, for which the GI50 is 12.2 µM in the experiment with HCC-2998 colon; 23.4 µM in the experiment on K-562 leukemia; 26 µM with OVCAR-4 ovarian; 74 µM in the experiment on OVCAR-5 ovarian; 9.12 µM in the experiment on SF-268 CNS; 13 µM in the experiment with SK-MEL-5 melanoma. Besides, the GI50 in the experiment with SNB-19 CNS was 36.6 µM. The TGI was 58.7 µM with HCC-2998 colon; above 100 µM with K-562 leukemia; above 100 µM with OVCAR-4 ovarian; above 100 µM with OVCAR-5 ovarian; above 100 µM in the experiment on SF-268 CNS; 39.4 µM with SK-MEL-5 melanoma. The compound further displayed a TGI in the experiment on SNB-19 CNS above 100 µM.
For the compound `COc1ccc2c(c1)N(CCO)C1=C(C(=O)OC1)C2c1cccc(F)c1` (stereo not drawn), the GI50 in the experiment with DU-145 prostate is 1.24 µM; in the experiment on HCC-2998 colon, 1.07 µM; in the experiment on K-562 leukemia, 0.199 µM; in the experiment on OVCAR-4 ovarian, 1.83 µM; in the experiment on OVCAR-5 ovarian it was 2.07 µM; in the experiment with SF-268 CNS, 0.764 µM. Moreover, the GI50 in the experiment with SK-MEL-5 melanoma is 0.456 µM; with SNB-19 CNS, 0.288 µM. Besides, the TGI with DU-145 prostate is above 38.6 µM; with HCC-2998 colon, above 50 µM; with K-562 leukemia, above 50 µM; with OVCAR-4 ovarian, above 50 µM; in the experiment on OVCAR-5 ovarian, above 50 µM; in the experiment on SF-268 CNS, above 50 µM. The TGI in the experiment on SK-MEL-5 melanoma was above 11.4 µM; in the experiment with SNB-19 CNS, above 50 µM.
As for `CCc1ccc2c(c1)N(CCO)C1=C(C(=O)OC1)C2c1cccc(Br)c1` (stereo not drawn), the GI50 is 0.658 µM with DU-145 prostate; 1.05 µM in the experiment with HCC-2998 colon; 0.368 µM in the experiment with K-562 leukemia; 0.738 µM in the experiment on OVCAR-4 ovarian; 4.37 µM with OVCAR-5 ovarian; 0.722 µM with SF-268 CNS. Moreover, the GI50 in the experiment with SK-MEL-5 melanoma is 0.256 µM; in the experiment on SNB-19 CNS it was 0.806 µM. The TGI in the experiment on DU-145 prostate came to 11.3 µM; in the experiment on HCC-2998 colon, 7.82 µM; in the experiment on K-562 leukemia, 14.7 µM; in the experiment with OVCAR-4 ovarian, 17.3 µM; in the experiment on OVCAR-5 ovarian, 20.8 µM; with SF-268 CNS, 15.9 µM. The TGI in the experiment on SK-MEL-5 melanoma is 8.67 µM; in the experiment with SNB-19 CNS, 18.4 µM.
Take `Fc1ccc(/C=N/n2c(-c3ccc(F)c(Cl)c3)nn(CNc3ccccc3C(F)(F)F)c2=S)cc1`: the GI50 in the experiment on DU-145 prostate was above 100 µM; with HCC-2998 colon, 89.7 µM; in the experiment with K-562 leukemia, 37.6 µM; in the experiment with OVCAR-4 ovarian, 57.4 µM; in the experiment on OVCAR-5 ovarian it was above 100 µM; with SF-268 CNS, above 100 µM. The GI50 in the experiment on SK-MEL-5 melanoma is 33 µM; with SNB-19 CNS, above 100 µM. Moreover, the TGI in the experiment on DU-145 prostate, in the experiment with HCC-2998 colon, with K-562 leukemia, in the experiment on OVCAR-4 ovarian, in the experiment with OVCAR-5 ovarian and in the experiment with SF-268 CNS was above 100 µM in each case. Besides, the TGI in the experiment with SK-MEL-5 melanoma and with SNB-19 CNS was above 100 µM throughout.
For `O=C1NC(=O)C(N2C(=O)c3ccccc3C2=O)CC1O` (stereo not drawn), the GI50 in the experiment with DU-145 prostate, with K-562 leukemia, in the experiment on OVCAR-4 ovarian, in the experiment with OVCAR-5 ovarian, in the experiment on SF-268 CNS and in the experiment on SNB-19 CNS was above 100 µM each time. The TGI with DU-145 prostate, with K-562 leukemia, in the experiment on OVCAR-4 ovarian, in the experiment on OVCAR-5 ovarian, in the experiment with SF-268 CNS and with SNB-19 CNS was above 100 µM throughout.
Take `NNC(=O)CS(=O)(=O)Nc1ncccn1`: the TGI in the experiment with DU-145 prostate, in the experiment with K-562 leukemia, with OVCAR-4 ovarian, with OVCAR-5 ovarian, with SF-268 CNS and in the experiment on SK-MEL-5 melanoma was above 100 µM each time. In the experiment on SNB-19 CNS, this compound gave a TGI above 100 µM.
For the compound `CCCCCCCCCCCCCCCCCC1=NCCN1CCOC1=C(Cl)C(=O)c2ccccc2C1=O`, the GI50 was 6.09 µM with DU-145 prostate; 3.51 µM in the experiment on HCC-2998 colon; 0.828 µM with K-562 leukemia; 2.29 µM in the experiment on OVCAR-5 ovarian; 2.08 µM in the experiment with SF-268 CNS; 2.36 µM in the experiment on SK-MEL-5 melanoma. The GI50 in the experiment on SNB-19 CNS is 3.56 µM. In addition, the TGI in the experiment with DU-145 prostate stood at 18.1 µM; with HCC-2998 colon, 12.3 µM; with K-562 leukemia, 4.2 µM; with OVCAR-5 ovarian, 5.27 µM; with SF-268 CNS it was 4.61 µM; in the experiment on SK-MEL-5 melanoma, 6.75 µM. Further, in the experiment with SNB-19 CNS, the TGI was 11.5 µM.
With `CO[C@H]1CC(O[C@@H]2/C(C)=C/C[C@@H]3C[C@@H](C[C@]4(C=C[C@H](C)[C@@H](C5CCCCC5)O4)O3)OC(=O)[C@@H]3C=C(C)[C@@H](O)[C@H]4OC/C(=C\C=C\[C@@H]2C)[C@]43O)O[C@@H](C)C1O[C@H]1C[C@H](OC)[C@@H](O)[C@H](C)O1` (stereo partly drawn), the GI50 in the experiment with HCC-2998 colon was 1.51 µM; in the experiment with OVCAR-4 ovarian, 1.52 µM; in the experiment with SF-268 CNS it was 1.69 µM; in the experiment on SK-MEL-5 melanoma, 1.41 µM; in the experiment on SNB-19 CNS it was 2.03 µM. Also, the TGI was 3 µM in the experiment with HCC-2998 colon; 2.88 µM with OVCAR-4 ovarian; 3.18 µM in the experiment with SF-268 CNS; 2.77 µM in the experiment with SK-MEL-5 melanoma; 6.52 µM in the experiment with SNB-19 CNS.
As for `COc1cccc(OC(=O)c2ccc(C(F)(F)F)nc2Nc2cc(Cl)ccc2C)c1`, the GI50 was 9.01 µM in the experiment on DU-145 prostate; 3.13 µM in the experiment on K-562 leukemia; above 100 µM in the experiment with OVCAR-4 ovarian; 15.1 µM in the experiment with OVCAR-5 ovarian; 4.38 µM in the experiment on SF-268 CNS; 2.63 µM with SK-MEL-5 melanoma. Moreover, in the experiment on SNB-19 CNS, the GI50 is above 100 µM. The TGI with DU-145 prostate was above 100 µM; with K-562 leukemia, 9.36 µM; with OVCAR-4 ovarian, above 100 µM; with OVCAR-5 ovarian, 47.4 µM; in the experiment on SF-268 CNS, above 100 µM; with SK-MEL-5 melanoma, 12.5 µM. Besides, the TGI in the experiment on SNB-19 CNS was above 100 µM.
With `COc1ccc2cc1Oc1ccc(cc1)C[C@H]1c3c(cc4c(c3Oc3cc5c(cc3OC)CCN(C)[C@@H]5C2)OCO4)CCN1C`, the GI50 in the experiment on DU-145 prostate is 6.23 µM; in the experiment on HCC-2998 colon it was 1.65 µM; in the experiment on OVCAR-4 ovarian it was 2.52 µM; in the experiment with OVCAR-5 ovarian, 6.65 µM; with SF-268 CNS, 5.09 µM; in the experiment on SK-MEL-5 melanoma it was 0.763 µM. Moreover, in the experiment on SNB-19 CNS, the GI50 was 3.53 µM. The TGI in the experiment on DU-145 prostate came to 17.8 µM; in the experiment with HCC-2998 colon, 8.26 µM; in the experiment on OVCAR-4 ovarian it was 12.3 µM; in the experiment with OVCAR-5 ovarian, 13.5 µM; in the experiment on SF-268 CNS, 11.5 µM; in the experiment on SK-MEL-5 melanoma, 1.43 µM. The TGI with SNB-19 CNS was 14.6 µM.
Consider `O=C(O)CN1CCN(CC(=O)O)CC(=O)[O][Hg][O]C(=O)C1`, for which the GI50 with DU-145 prostate was 27.8 µM; with K-562 leukemia it was 17.9 µM; in the experiment with OVCAR-4 ovarian it was 17.7 µM; in the experiment with OVCAR-5 ovarian, 18.7 µM; in the experiment with SF-268 CNS, 20.7 µM; in the experiment on SK-MEL-5 melanoma it was 20.5 µM. Also, in the experiment on SNB-19 CNS, the GI50 is 29.8 µM. The TGI is above 61.9 µM in the experiment with DU-145 prostate; 44.6 µM in the experiment on K-562 leukemia; 34 µM in the experiment on OVCAR-4 ovarian; 38.5 µM in the experiment on OVCAR-5 ovarian; 52.6 µM with SF-268 CNS; above 57 µM with SK-MEL-5 melanoma. In addition, in the experiment on SNB-19 CNS, the TGI was above 100 µM.
For the compound `O=C(/C=C\c1cccc([N+](=O)[O-])c1)/C=C/c1cccc([N+](=O)[O-])c1`, the GI50 was 3.49 µM in the experiment with DU-145 prostate; 2.6 µM in the experiment on HCC-2998 colon; above 100 µM with OVCAR-4 ovarian; 19.7 µM in the experiment with OVCAR-5 ovarian; 3.08 µM in the experiment with SF-268 CNS; 61.3 µM in the experiment on SK-MEL-5 melanoma. Besides, the GI50 in the experiment on SNB-19 CNS was 16.4 µM. For the same compound, the TGI in the experiment with DU-145 prostate is 56 µM; with HCC-2998 colon it was 6.9 µM; with OVCAR-4 ovarian it was above 100 µM; in the experiment with OVCAR-5 ovarian it was above 100 µM; in the experiment with SF-268 CNS, 9.89 µM; in the experiment with SK-MEL-5 melanoma, above 100 µM. In the experiment with SNB-19 CNS, this compound had a TGI above 100 µM.
Regarding `COc1cc2c(cc1C1COc3cc4occc4cc3C1=O)OCO2` (stereo not drawn), the TGI in the experiment with DU-145 prostate was above 100 µM; with HCC-2998 colon, above 100 µM; in the experiment on OVCAR-4 ovarian, 36.5 µM; in the experiment with OVCAR-5 ovarian, above 100 µM; with SF-268 CNS, above 100 µM; in the experiment with SK-MEL-5 melanoma, above 100 µM. The TGI in the experiment on SNB-19 CNS was above 100 µM.

Values taken from PubChem BioAssay (NCI).
